Earlier results on two molecules are cited in patent publication US12115245B2 (Xiamen University, priority 2019, dated 2024).

Where a SMILES comes first, the peptide text is derived from it.

Take `C[C@H](N)C(=O)N[C@@H](CCC(N)=O)C(=O)O` [Ala-Gln, L-alanyl-L-glutamine] (H-Ala-Gln-OH): the “solubility in water / aqueous solutions” value is “very soluble in water”. Consider `NC(=O)CC[C@H](N)C(=O)O` [Gln, Glutamine], for which the “solubility in water / aqueous solutions” value is on record as “low solubility in aqueous solutions”.
